The results in this text go back to US20260184687A1, “DIHYDROINDENE DERIVATIVES AS MALT1 INHIBITORS” (C4X Discovery Limited, priority 2022, published 2026).

Assay [1] concerns IL-2 release from stimulated Jurkat cells. As to the kind of experiment: Human IL-2 Release Phenotypic Assay (Assay 3). The class given is cell-based. As to conditions: Jurkat cells (clone E6-1), 200 ng/mL PMA + 300 ng/mL ionomycin, IL-2 by ELISA. Here is the method: This assay measured the inhibition by MALT1 inhibitors of the IL-2 release from stimulated Jurkat cells, a human immortalized T lymphocyte cell line. IL-2 production from Jurkat cells is regulated by activation of NFκB signalling, which is in turn regulated by MALT1 protease activity.
Jurkat cells (clone E6-1, ATCC) were cultured in RPMI1640 supplemented with 10% (v/v) FBS and 1% (v/v) penicillin/streptomycin (100× liquid stocks). Cells were seeded in 96-well white tissue culture-treated plates (Perkin Elmer) at 50 000 cells/well and incubated overnight at 37° C., 5% CO2. Test compounds in DMSO at half-log dilutions were added to the cells and incubated for 30 mins. Final DMSO concentration was 0.5%. Cells were then stimulated with 200 ng/mL PMA+300 ng/mL ionomycin and incubated for 48 hours. […] IC50 values were calculated using GraphPad Prism using 4-parameter non-linear regression curve fit.
In general terms: An ELISA detects its analyte on a solid surface through an enzyme-linked reagent.

The target in another assay is T1, FL hMALT1 enzyme (Homo sapiens, UniProt Q9UDY8).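 Also: Cell-free protease assay: enzyme preincubated with compound 30 min at room temperature, then cleavage of fluorogenic Ac-LVSR-AMC substrate (100 µM) tracked by fluorescence (ex 360/em 460 nm).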
T1 sequence (Q9UDY8 1-824): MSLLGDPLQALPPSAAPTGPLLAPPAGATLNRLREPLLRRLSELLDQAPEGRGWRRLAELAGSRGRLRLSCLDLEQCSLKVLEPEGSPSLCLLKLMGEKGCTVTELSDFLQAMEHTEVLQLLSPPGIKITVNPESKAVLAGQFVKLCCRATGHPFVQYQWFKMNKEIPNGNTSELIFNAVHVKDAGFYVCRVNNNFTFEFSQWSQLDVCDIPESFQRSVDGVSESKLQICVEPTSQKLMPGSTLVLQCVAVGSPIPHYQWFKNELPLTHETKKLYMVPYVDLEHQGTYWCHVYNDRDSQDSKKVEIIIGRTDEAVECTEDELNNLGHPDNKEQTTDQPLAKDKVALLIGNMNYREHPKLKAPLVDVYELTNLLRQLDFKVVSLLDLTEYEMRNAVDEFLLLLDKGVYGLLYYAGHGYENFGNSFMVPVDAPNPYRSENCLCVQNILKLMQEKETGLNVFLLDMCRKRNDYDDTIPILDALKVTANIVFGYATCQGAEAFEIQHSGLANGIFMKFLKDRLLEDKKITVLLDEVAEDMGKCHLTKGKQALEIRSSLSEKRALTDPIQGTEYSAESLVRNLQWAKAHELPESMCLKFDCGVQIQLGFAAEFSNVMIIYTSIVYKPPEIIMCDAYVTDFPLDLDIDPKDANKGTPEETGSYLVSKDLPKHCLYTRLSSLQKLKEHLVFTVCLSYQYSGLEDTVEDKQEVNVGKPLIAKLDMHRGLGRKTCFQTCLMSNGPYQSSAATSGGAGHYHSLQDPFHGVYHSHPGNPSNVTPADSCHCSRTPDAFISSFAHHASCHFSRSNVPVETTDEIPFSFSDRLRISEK
As to the kind of experiment: biochemical.

Usually IC50 stands for the point on the concentration scale where inhibition reaches its midpoint.

For `CN(C(=O)[C@H]1CCC(=O)NC1)[C@@H](c1ccc(N[C@H]2Cc3ccc(Cl)cc3C2)cn1)C(F)(F)F` [Example 297, (S)—N—((S)-1-(5-(((S)-5-Chloro-2,3-dihydro-1H-inden-2-yl)amino)pyridin-2-yl)-2,2,2-trifluoroethyl)-N-methyl-6-oxopiperidine-3-carboxamide], the IC50 is 360 nM in assay [1] (Homo sapiens, Jurkat, 48 h) and 170 nM at FL hMALT1 enzyme.

For `CN(C(=O)[C@H]1CCC(=O)NC1)[C@@H](c1ccc(NC2Cc3ccc(Cl)c(C4CC4)c3C2)cn1)C(F)(F)F` (single isomer, unassigned) [Example 330], the IC50 in assay [1] (Homo sapiens, Jurkat, 48 h) came out at 220 nM; at FL hMALT1 enzyme, 16 nM.

Consider `CN(C(=O)C1CC2(CCC(=O)N2)C1)[C@@H](c1ccc(NC2Cc3ccc(Cl)c(Cl)c3C2)cn1)C(F)(F)F` (single isomer, unassigned) [Example 341], for which the 50% inhibitory concentration (IC50) turned out to be 100 nM in assay [1] (48 hours) and 15 nM against FL hMALT1 enzyme.

`CCc1cccc2c1CC(Nc1ccc([C@H](N(C)C(=O)C3CCS(=O)(=O)CC3)C(F)(F)F)nc1)C2` (single isomer, unassigned) [Example 198]: the IC50 was 1200 nM in assay [1] (Homo sapiens, Jurkat, 48 h) and 78 nM against FL hMALT1 enzyme.

As for `CN(C(=O)C1CCS(=O)(=O)CC1)[C@@H](c1ccc(NC2Cc3cccc(Cl)c3C2)cn1)C(F)(F)F` (single isomer, unassigned) [Example 263], the 50% inhibitory concentration (IC50) in assay [1] (Homo sapiens, Jurkat, 48 h) came to 510 nM; on FL hMALT1 enzyme, 61 nM.

`CN(C(=O)C1CCC(=O)NC1)[C@@H](c1ccc(NC2Cc3ccccc3C2(C)C)cn1)C(F)(F)F` (single isomer, unassigned) [Example 104]: the values for the IC50 (in assay [1] (48 hours); at FL hMALT1 enzyme) were 2700 nM and 140 nM, respectively.

`CN(C(=O)C1CN2CCC1CC2)[C@@H](c1ccc(NC2Cc3ccccc3C2(C)C)cn1)C(F)(F)F` (single isomer, unassigned) [Example 141]: the concentration for half-maximal inhibition (IC50) in assay [1] (48 hours) came to 1230 nM; against FL hMALT1 enzyme it was 210 nM.

For `CN(C(=O)C1CCNC(=O)C1)[C@@H](c1ccc(N[C@H]2Cc3ccc(Cl)cc3C2)cn1)C(F)(F)F` (single isomer, unassigned) [Example 314], the IC50 came out at 380 nM in assay [1] (Homo sapiens, Jurkat, 48 h) and 150 nM on FL hMALT1 enzyme.

With `CN(C(=O)C1CCS(=O)(=O)CC1)[C@@H](c1ccc(N[C@H]2Cc3ccc(Cl)cc3C2)cn1)C(F)(F)F` (single isomer, unassigned) [Example 199], the IC50 came to 290 nM in assay [1] (Homo sapiens, Jurkat, 48 h) and 73 nM at FL hMALT1 enzyme.

For `CCN(C(=O)C1CCS(=O)(=O)CC1)[C@@H](c1ccc(NC2Cc3ccccc3C2(C)C)cn1)C(F)(F)F` (single isomer, unassigned) [Example 188], the IC50 was determined as 650 nM in assay [1] (48 hours) and 47 nM at FL hMALT1 enzyme.

Consider `CN(C(=O)[C@H]1C[C@H](N(C)C)C1)[C@@H](c1ccc(NC2Cc3ccccc3C2(C)C)cn1)C(F)(F)F` (single isomer, unassigned) [Example 112], for which the 50% inhibitory concentration (IC50) stood at 430 nM in assay [1] (Homo sapiens, Jurkat, 48 h) and 230 nM on FL hMALT1 enzyme.

With `CN(C(=O)C1CCNCC1)[C@@H](c1ccc(NC2Cc3ccccc3C2(C)C)cn1)C(F)(F)F` (single isomer, unassigned) [Example 146], the half-maximal inhibitory concentration (IC50) in assay [1] (Homo sapiens, Jurkat, 48 h) came out at 480 nM; against FL hMALT1 enzyme, 110 nM.

Turning to `CN(C(=O)C1CCNC(=O)C1)[C@@H](c1ccc(NC2Cc3ccccc3C2(C)C)cn1)C(F)(F)F` (single isomer, unassigned) [Example 118], the results for the half-inhibitory concentration (IC50) (in assay [1] (48 hours); at FL hMALT1 enzyme) were 280 nM and 49 nM, respectively.

`CC(=O)N1CCC12CC(C(=O)N(C)[C@@H](c1ccc(NC3Cc4ccccc4C3(C)C)cn1)C(F)(F)F)C2` (single isomer, unassigned) [Example 235]: the IC50 in assay [1] (Homo sapiens, Jurkat, 48 h) was found to be 1000 nM; against FL hMALT1 enzyme, 60 nM.

On to `CN(C(=O)C1CCS(=O)(=O)CC1)[C@@H](c1ccc(NC2Cc3ccc(F)c(Cl)c3C2)cn1)C(F)(F)F` (single isomer, unassigned) [Example 265], for which the half-inhibitory concentration (IC50) came to 220 nM in assay [1] (Homo sapiens, Jurkat, 48 h) and 32 nM at FL hMALT1 enzyme.

As to `CN(C(=O)C1CCS(=O)(=O)CC1)[C@@H](c1ccc(NC2Cc3ccc(Cl)c(F)c3C2)nc1)C(F)(F)F` (single isomer, unassigned) [Example 332], the 50% inhibitory concentration (IC50) in assay [1] (Homo sapiens, Jurkat, 48 h) worked out at 47 nM; against FL hMALT1 enzyme it was 14 nM.

For `CN(C(=O)C12CC(NS(C)(=O)=O)(C1)C2)[C@@H](c1ccc(N[C@H]2Cc3ccc(Cl)cc3C2)cn1)C(F)(F)F` [Example 299, N—((S)-1-(5-(((S)-5-Chloro-2,3-dihydro-1H-inden-2-yl)amino)pyridin-2-yl)-2,2,2-trifluoroethyl)-N-methyl-3-(methylsulfonamido)bicyclo[1.1.1]pentane-1-carboxamide], the IC50 in assay [1] (Homo sapiens, Jurkat, 48 h) turned out to be 430 nM; against FL hMALT1 enzyme, 94 nM.

With `CN(C(=O)C1CCCNC1)[C@@H](c1ccc(NC2Cc3ccccc3C2(C)C)cn1)C(F)(F)F` (single isomer, unassigned) [Example 126], the half-maximal inhibitory concentration (IC50) in assay [1] (48 hours) worked out at 700 nM; at FL hMALT1 enzyme, 120 nM.

As for `CN(C(=O)[C@H]1CC[C@@H](NS(C)(=O)=O)C1)[C@@H](c1ccc(N[C@H]2Cc3ccccc3C2(C)C)cn1)C(F)(F)F` [Example 221, (1S,3R)—N—((S)-1-(5-(((S)-1,1-Dimethyl-2,3-dihydro-1H-inden-2-yl)amino)pyridin-2-yl)-2,2,2-trifluoroethyl)-N-methyl-3-(methylsulfonamido)cyclopentane-1-carboxamide], the IC50 in assay [1] (Homo sapiens, Jurkat, 48 h) amounted to 230 nM; on FL hMALT1 enzyme, 21 nM.

In the case of `CN(C(=O)C1CCNC(=O)C1)[C@@H](c1ccc(NC2Cc3ccccc3C2(C)C)cn1)C(F)(F)F` (single isomer, unassigned) [Example 116], the concentration for half-maximal inhibition (IC50) worked out at 510 nM in assay [1] (48 hours) and 68 nM on FL hMALT1 enzyme.

As for `CN(C(=O)C1COCC(=O)N1)[C@@H](c1ccc(NC2Cc3ccccc3C2(C)C)cn1)C(F)(F)F` (single isomer, unassigned) [Example 164], the IC50 came to 150 nM in assay [1] (Homo sapiens, Jurkat, 48 h) and 33 nM at FL hMALT1 enzyme.

Regarding `CN1CCC(C(=O)N(C)[C@@H](c2ccc(NC3Cc4ccccc4C3(C)C)cn2)C(F)(F)F)CC1` (single isomer, unassigned) [Example 132], the 50% inhibitory concentration (IC50) in assay [1] (48 hours) amounted to 1370 nM; at FL hMALT1 enzyme it was 250 nM.

For `CN1CCCC(C(=O)N(C)[C@@H](c2ccc(NC3Cc4ccccc4C3(C)C)cn2)C(F)(F)F)C1` (single isomer, unassigned) [Example 129], the 50% inhibitory concentration (IC50) is 1800 nM in assay [1] (Homo sapiens, Jurkat, 48 h) and 210 nM against FL hMALT1 enzyme.

Take `CN(C(=O)C1CC2(CCN2CCO)C1)[C@@H](c1ccc(NC2Cc3ccccc3C2(C)C)cn1)C(F)(F)F` (single isomer, unassigned) [Example 249]: the concentration for half-maximal inhibition (IC50) in assay [1] (Homo sapiens, Jurkat, 48 h) came out at 350 nM; at FL hMALT1 enzyme it was 50 nM.

As for `CN1CCC(C(=O)N(C)[C@@H](c2ccc(N[C@H]3Cc4ccccc4C3(C)C)cn2)C(F)(F)F)CC1=O` (single isomer, unassigned) [Example 251], the IC50 in assay [1] (48 hours) amounted to 320 nM; against FL hMALT1 enzyme, 32 nM.

As for `CN(C(=O)C1C2CS(=O)(=O)CC21)[C@@H](c1ccc(NC2Cc3ccccc3C2(C)C)cn1)C(F)(F)F` (single isomer, unassigned) [Example 216], the IC50 in assay [1] (48 hours) amounted to 1900 nM; against FL hMALT1 enzyme, 51 nM.

In the case of `CN(C(=O)[C@H]1C[C@@]2(COC(=O)N2)C1)[C@@H](c1ccc(NC2Cc3ccccc3C2(C)C)cn1)C(F)(F)F` (single isomer, unassigned) [Example 208], the IC50 was 250 nM in assay [1] (Homo sapiens, Jurkat, 48 h) and 27 nM on FL hMALT1 enzyme.

As to `CN(C(=O)[C@H]1C[C@H](N(C)C)C1)[C@@H](c1ccc(NC2Cc3ccccc3C2(C)C)nc1)C(F)(F)F` (single isomer, unassigned) [Example 114], the IC50 is 1020 nM in assay [1] (Homo sapiens, Jurkat, 48 h) and 190 nM against FL hMALT1 enzyme.

`CN1CCCC(C(=O)N(C)[C@@H](c2ccc(NC3Cc4ccccc4C3(C)C)cn2)C(F)(F)F)C1` (single isomer, unassigned) [Example 130]: the IC50 in assay [1] (48 hours) amounted to 1080 nM; against FL hMALT1 enzyme, 120 nM.

For the molecule `CN(C(=O)C1CNC(=O)CO1)[C@@H](c1ccc(NC2Cc3ccccc3C2(C)C)cn1)C(F)(F)F` (single isomer, unassigned) [Example 137], the values for the 50% inhibitory concentration (IC50) (in assay [1] (48 hours); on FL hMALT1 enzyme) were 1250 nM and 150 nM, respectively.

In the case of `CNC(=O)N1CC(C(=O)N(C)[C@@H](c2ccc(NC3Cc4ccccc4C3(C)C)cn2)C(F)(F)F)C1` (single isomer, unassigned) [Example 227], the IC50 is 99 nM in assay [1] (48 hours) and 18 nM against FL hMALT1 enzyme.
